Experimental data from PMC6249549, “Bioactive metabolites from the leaves of Withania adpressa” (Pharmaceutical Biology, 2018).
Entries after “also recorded” stand apart in the source; their conditions may differ.

Assays:
[1] = tested on: MM-CSCs (multiple myeloma cancer stem cells); experiment: Antiproliferative activity, MTT assay; format: cell-based, Human; details: 72 h; for IC50: Homo sapiens, mean ± SD of three measurements
Procedure: (§1) Human multiple myeloma cancer stem cells (MM-CSCs) derived from the bone marrow of a MM patient, were obtained from Celprogen (Torrance, CA). MM-CSCs were used between passages 4 and 12 for experiments. The tumour plasma cells RPMI 8226 were obtained from LGC standards (Middlesex, United Kingdom). RPMI 8226 cells were used between passages 10 and 25 for experiments. The two cell lines were cultured at 37 °C and 5% CO2 atmosphere in RPMI 1640 culture medium supplemented with 10% foetal bovine serum (Biowest), 100 IU/mL penicillin and 250 μg/mL streptomycin. MTT and XTT assays were used to evaluate the antiproliferative activity of the pure compounds in MM-CSCs and RPMI 8226 cells, respectively (Issa and Cuendet [2017]). MM-CSCs were seeded in 96 well plates at a density of 5,000 cells per well and allowed to adhere for 24 h, whereas RPMI 8226 cells were plated at a density of 15,000 cells per well and treated immediately. MM-CSCs and RPMI 8226 cells were treated with increasing concentrations (0–20 µM) of compounds for 72 h. Twenty microlitres of MTT solution (5 mg/mL) or 50 μL XTT solution (1 mg/mL) were added in each well and incubated for 2 h (MTT assay) or 4 h (XTT assay). The media and MTT solution were aspirated and the cells containing formazan were solubilized in 100 µL DMSO. Absorbance was measured at 590 nm (MTT assay) or 450 nm (XTT assay). The percentage of cell viability was calculated as the absorbance of each well was divided by that of the vehicle control wells (0.5% DMSO in culture medium) and multiplied by 100. IC50 values were calculated using GraphPad Prism. Each compound was tested in triplicate and three independent experiments were performed using bortezomib as positive control.

[2] = tested on: RPMI 8226 cells; experiment: Antiproliferative activity, XTT assay; format: cell-based; details: for IC50: Homo sapiens, RPMI-8226, 72 h, mean ± SD of three measurements; for Antiproliferative activity against RPMI 8226 (in words): 72 h
Procedure: as §1

[3] = tested on: NF-κB; experiment: NF-κB inhibition assay, TNF-α stimulated HEK293/NF-κB-luc luciferase reporter cells; format: cell-based; details: TNF-α (20 ng/mL) induced, mean ± SD of three independent measurements
Procedure: NF-κB inhibitory activity was assessed using a HEK293/NF-κB-luc cell line (Panomics, Fremont, CA) as previously described (Ndongo et al. [2017]). Briefly, cells were cultured at 37 °C and 5% CO2 atmosphere in high glucose Dulbecco's modified Eagle's medium (ThermoFisher Scientific) with 100 IU/mL penicillin, 100 μg/mL streptomycin, 100 μg/mL hygromycin B (ThermoFisher Scientific) and 10% foetal bovine serum (Biowest, Nuaillé, France). The day before the assay, cells were treated for 1 h with 2.5 μM of Cell Tracker Green CMFDA (ThermoFisher Scientific), a fluorescent dye used to quantify cell viability, in FBS-free medium. Then, 10^4 cells/well were seeded in 96-well plates and incubated overnight. After that, cells were treated with either the vehicle control (0.5% DMSO in culture medium) or the samples and stimulated for 5 h with 20 ng/mL of TNF-α (Sigma-Aldrich, Saint Louis, MO). Finally, cells were lysed with reporter lysis buffer (Promega, Madison, WI) and fluorescence signals were read on a Cytation 3 multimode plate reader (Biotek, Winooski, VT). Luciferase assay reagent (Promega) was then added to each well using the auto-injector and the luminescence signals were read. The fluorescence signal was used to normalize the luminescence signal for each well to limit the influence of cell toxicity in luminescence signal intensity. Relative NF-κB activity was quantified by comparing the normalized luminescence signal of vehicle treated nonstimulated cells with the one of vehicle treated stimulated cells. All pure compounds were first screened at 20 μM. Compounds able to inhibit more than 50% of TNF-α induced NF-κB activity at this concentration were considered as active and were selected for calculation of their IC50. Nonlinear regression (with sigmoidal dose response) was used to calculate the IC50 values using GraphPad Prism. Each compound was tested in duplicate and three independent experiments were performed using parthenolide as positive control.

[4] = NO radical scavenging assay; details: pure compound
[5] = DPPH radical scavenging assay; details: pure compound
Procedure: The DPPH radical scavenging activity was carried out as described previously (Şahin et al. [2004]) with slight modifications. Samples (1–200 µg/mL) were added to a 60-μM methanol solution of DPPH. The absorbance of the solution was measured at 517 nm after a 30-min incubation period at room temperature in the dark.

Row | SMILES | IC50 [1] [nM] | IC50 [2] [nM] | Antiproliferative activity against MM-CSCs (in words) [1] | Antiproliferative activity against RPMI 8226 (in words) [2] | IC50 ([3]; Homo sapiens, HEK293, 5 h) [nM] | IC50 ([3]; 5 h) [nM] | IC50 [4] [nM] | IC50 [5] [nM]
1 | CC(C)C[C@H](NC(=O)[C@H](Cc1ccccc1)NC(=O)c1cnccn1)B(O)O [Bortezomib, bortezomib, reference compound] | 9.1 ± 1.4 | 3.3 ± 0.8 | – | – | – | – | – | –
2 | CC1=C(C)C(=O)O[C@@H]([C@](C)(O)[C@]2(O)CC[C@@]3(O)[C@@H]4CC=C5CC=CC(=O)[C@]5(C)[C@H]4CC[C@]23C)C1 [Compound 1, withanolide F] | 5300 ± 900 | 100 ± 10 | low µM antiproliferative activity; also recorded: showed activity | low µM antiproliferative activity; also recorded: showed activity | 1200 ± 200 | – | – | –
3 | CC1=C(CO)C(=O)O[C@@H]([C@@H](C)[C@H]2CC[C@H]3[C@@H]4C[C@H]5O[C@]56[C@@H](O)C=CC(=O)[C@]6(C)[C@H]4CC[C@]23C)C1 [Compound 2, withaferin A] | 330 ± 20 | 170 ± 30 | low µM antiproliferative activity | low µM antiproliferative activity | 47 | 50 ± 10 | – | –
4 | CC1=C(C)C(=O)OC(C(C)(O)C2(O)CCC3(O)C4CC=C5CC(OC6OC(CO)C(O)C(O)C6O)CC(=O)C5(C)C4CCC32C)C1 (stereo not shown) [Compound 3, coagulin L] | > 20000 | 3600 ± 600 | – | – | > 20000 | – | – | –
5 | C[C@@H]1O[C@@H](OC[C@H]2O[C@@H](Oc3c(-c4ccc(O)cc4)oc4cc(O)cc(O)c4c3=O)[C@H](O)[C@@H](O)[C@@H]2O)[C@H](O)[C@H](O)[C@H]1O [Compound 4, nicotiflorin] | > 20000 | 7100 ± 100 | – | – | > 20000 | – | 41300 | 35300
6 | CC1=C(C)C(=O)OC(C(C)(O)C2(O)CCC3(O)C4CC=C5CC(OC6OC(CO)C(OC7OC(C)C(O)C(O)C7O)C(O)C6O)CC(=O)C5(C)C4CCC32C)C1 [Compound 5, (14R,17S,20R,22R)-3β-O-(α-L-rhamnopyranosyl-(1→4)-β-D-glucopyranosyl)-14,17,20-trihydroxy-1-oxo-witha-5,24-dienolide] | > 20000 | 3200 ± 400 | – | – | > 20000 | – | – | –
7 | C=C1C(=O)O[C@H]2[C@H]1CC/C(C)=C/CC[C@@]1(C)O[C@@H]21 [Parthenolide, parthenolide, reference compound] | – | – | – | – | 530 ± 10 | – | – | –
